From ChEMBL document CHEMBL5352406 (Eur J Med Chem, 2022)

What was measured:
Format in all cases: functional
[1] = test system: HCT-116; test: Cell cycle arrest in human HCT-116 cells assessed as accumulation of cells at […] phase at 10 nM measured after 48 hrs by flow cytometry (reference value: 6.39%)
[2] = test system: HCT-116; test: Antiproliferative activity against human HCT-116 cells assessed as cell growth inhibition after 72 hrs by MTT assay
[3] = test system: SW480; test: Antiproliferative activity against human SW480 cells assessed as cell growth inhibition after 72 hrs by MTT assay
[4] = test system: HCT-116; test: Induction of apoptosis in human HCT-116 cells assessed as viable cells at 10 nM measured after 48 hrs by Annexin V-FITC/PI assay (reference value: 88.5%); conditions: read-out: Activity
[5] = test system: HCT-116; test: Cell cycle arrest in human HCT-116 cells assessed as accumulation of cells at S phase at 10 nM measured after 48 hrs by flow cytometry (reference value: 31.43%)
[6] = test system: HCT-116; test: Induction of apoptosis in human HCT-116 cells assessed as late apoptotic cells at 10 nM measured after 48 hrs by Annexin V-FITC/PI assay (reference value: 6.06%)
[7] = test system: MCF7; test: Antiproliferative activity against human MCF7 cells assessed as cell growth inhibition after 72 hrs by MTT assay
[8] = test system: HCT-116; test: Induction of apoptosis in human HCT-116 cells assessed as necrotic cells at 10 nM measured after 48 hrs by Annexin V-FITC/PI assay (reference value: 2.31%)
[9] = test system: HCT-116; test: Cell cycle arrest in human HCT-116 cells assessed as accumulation of cells at G0-G1 phase at 10 nM measured after 48 hrs by flow cytometry (reference value: 62.18%)
[10] = test system: HCT-116; test: Induction of apoptosis in human HCT-116 cells assessed as early apoptotic cells at 10 nM measured after 48 hrs by Annexin V-FITC/PI assay (reference value: 3.16%)
[11] = test system: A549; test: Antiproliferative activity against human A549 cells assessed as cell growth inhibition after 72 hrs by MTT assay

GI50 [2]: 9 nM
GI50 [3]: 8 nM
GI50 [7]: 12 nM
GI50 [11]: 6 nM
Structure (SMILES): CCc1cnn2c(NCc3ccc[n+]([O-])c3)cc(N3CCCC[C@H]3CCO)nc12 [DINACICLIB]
Activity [1]: 10.05%
viability at 0.01 µM [4]: 55.3%
Activity [5]: 44.93%
Activity [6]: ~10.4%
Activity [8]: 1.14%
Activity [9]: 45.02%
Activity [10]: 33.2%
